Counter-ions that a name gives are not always drawn.
melting point	Structure (SMILES)
140 to 143 °C	Nc1cccc(-c2ccc(CCN3Cc4ccccc4C3)cc2)n1 [Example 22, 6-{4-[2-(1,3-Dihydro-isoindol-2-yl)-ethyl]-phenyl}-pyridin-2-ylamine]
170 °C (dec.)	Nc1cccc(-c2ccc(CCNC3CC4CCC(C3)N4)cc2)n1 (centres unmarked) (as salt: hydrochloride)
85 to 88 °C	CC(C)CN1CCN(CCc2ccc(-c3cccc(N)n3)cc2)CC1 [Example 17, 6-{4-[2-(4-Isobutyl-piperazin-1-yl)-ethyl]-phenyl}-pyridin-2-ylamine]
189 to 192 °C (dec.)	Nc1cccc(-c2ccc(CN3CC4C(N)C4C3)cc2)n1 (centres unmarked) (as salt: hydrochloride)
174 to 176 °C	CN(C)C1CCN(CCc2ccc(-c3cccc(N)n3)cc2)CC1 [Example 21, 6-{4-[2-(4-Dimethylamino-piperidin-1-yl)-ethyl]-phenyl}-pyridin-2-ylamine]
160 °C (dec.)	Nc1cccc(-c2ccc(CCN3C4CCC3CC(NC(=O)Cc3ccc(F)cc3)C4)cc2)n1 (centres unmarked) (as salt: hydrochloride)
180 to 182 °C	Nc1cccc(-c2ccc(CCN3CCN(C(=O)NC4CCCCC4)CC3)cc2)n1 [Example 32, 4-{2-[4-(6-Amino-pyridin-2-yl)-phenyl]-ethyl}-piperazine-1-carboxylic acid cyclohexylamide]
170 °C (dec.)	Nc1cccc(-c2ccc(CCNC3CC4CCC(C3)N4C(=O)Cc3ccc(F)cc3)cc2)n1 (centres unmarked) (as salt: hydrochloride)

Second part, the compound before the results:

Structure (SMILES)	melting point
Nc1cccc(-c2ccc(CCN3CCN(C(=O)Cc4ccccc4)CC3)cc2)n1	135 to 137 °C
Nc1cccc(-c2ccc(CCN3CCC(NC(=O)NCc4ccccc4)C3)cc2)n1 (centres unmarked) (as salt: hydrochloride) [Example 73, 1-(1-{2-[4-(6-Amino-pyridin-2yl)-phenyl]-ethyl}-pyrrolidin-3-yl)-3-benzyl-urea]	90 °C (dec.)
Cc1ccc(NC(=O)N2CCN(CCc3ccc(-c4cccc(N)n4)cc3)CC2)cc1 [Example 30, 4-{2-[4-(6-Amino-pyridin-2-yl)-phenyl]-ethyl}-piperazine-1-carboxylic acid p-tolyl-amide]	160 to 162 °C
Nc1cccc(-c2ccc(CCN3CCN(c4nc(-c5ccccc5)cs4)CC3)cc2)n1 [Example 15, 6-(4-{2-[4-(4-Phenyl-thiazol-2-yl)-piperazin-1-yl]-ethyl}-phenyl)-pyridin-2-ylamine]	158 to 161 °C
Nc1cccc(-c2ccc(CCN3CCN(CCc4ccc(F)cc4)CC3)cc2)n1 [Example 53, 6-[4-(2-{4-[2-(4-Fluoro-phenyl)-ethyl]-piperazin-1-yl}-ethyl)-phenyl]-pyridin-2-ylamine]	165 to 167 °C
Nc1cccc(-c2ccc(CCN3CCN(CCc4ccccc4)CC3)cc2)n1 [Example 1, 6-{4-[2-(4-Phenethyl-piperazin-1-yl)-ethyl]-phenyl}-pyridin-2-ylamine]	111 to 113 °C
